Test results taken from ChEMBL document CHEMBL1144473, “Selective inhibition of carboxylesterases by isatins, indole-2,3-diones” (J Med Chem, 2007).
Calls of active or inactive are those of the source. No cut-off for these calls is given here.

How the values were obtained:
[1] = Inhibition of human intestinal carboxylesterase expressed in sf21 cells up to 100 uM
Liver carboxylesterase 1 [2] = target: T1, Liver carboxylesterase 1 (Homo sapiens, UniProt P23141); test: Inhibition of human liver CE1 expressed in sf21 cells up to 100 uM
T1 sequence (P23141 whole entry): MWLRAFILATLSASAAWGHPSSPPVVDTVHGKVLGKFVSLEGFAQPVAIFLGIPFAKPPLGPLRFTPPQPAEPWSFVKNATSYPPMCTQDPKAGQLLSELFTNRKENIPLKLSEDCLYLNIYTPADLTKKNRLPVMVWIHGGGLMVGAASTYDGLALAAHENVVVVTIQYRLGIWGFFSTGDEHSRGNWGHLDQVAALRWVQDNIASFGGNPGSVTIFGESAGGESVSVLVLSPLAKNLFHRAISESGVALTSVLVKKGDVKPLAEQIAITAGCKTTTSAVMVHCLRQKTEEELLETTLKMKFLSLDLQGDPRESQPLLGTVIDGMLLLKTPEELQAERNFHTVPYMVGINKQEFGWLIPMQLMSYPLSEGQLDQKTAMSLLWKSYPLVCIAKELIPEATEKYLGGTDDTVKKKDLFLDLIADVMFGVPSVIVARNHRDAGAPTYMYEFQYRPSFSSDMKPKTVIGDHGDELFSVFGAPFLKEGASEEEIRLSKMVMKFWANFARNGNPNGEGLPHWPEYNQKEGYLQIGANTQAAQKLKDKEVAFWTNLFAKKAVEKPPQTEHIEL

[3] = Inhibition of rabbit liver carboxylesterase expressed in sf21 cells up to 100 uM; conditions: Oryctolagus cuniculus
[4] = Inhibition of human intestinal carboxylesterase expressed in sf21 cells
Liver carboxylesterase 1 [5] = target: T1, Liver carboxylesterase 1; test: Inhibition of human liver CE1 expressed in sf21 cells; type: cell-based
[6] = Inhibition of rabbit liver carboxylesterase expressed in sf21 cells; type: cell-based, Oryctolagus cuniculus
Acetylcholinesterase = Acetylcholinesterase (Homo sapiens, UniProt P22303)
Acetylcholinesterase, sequence (P22303 whole entry): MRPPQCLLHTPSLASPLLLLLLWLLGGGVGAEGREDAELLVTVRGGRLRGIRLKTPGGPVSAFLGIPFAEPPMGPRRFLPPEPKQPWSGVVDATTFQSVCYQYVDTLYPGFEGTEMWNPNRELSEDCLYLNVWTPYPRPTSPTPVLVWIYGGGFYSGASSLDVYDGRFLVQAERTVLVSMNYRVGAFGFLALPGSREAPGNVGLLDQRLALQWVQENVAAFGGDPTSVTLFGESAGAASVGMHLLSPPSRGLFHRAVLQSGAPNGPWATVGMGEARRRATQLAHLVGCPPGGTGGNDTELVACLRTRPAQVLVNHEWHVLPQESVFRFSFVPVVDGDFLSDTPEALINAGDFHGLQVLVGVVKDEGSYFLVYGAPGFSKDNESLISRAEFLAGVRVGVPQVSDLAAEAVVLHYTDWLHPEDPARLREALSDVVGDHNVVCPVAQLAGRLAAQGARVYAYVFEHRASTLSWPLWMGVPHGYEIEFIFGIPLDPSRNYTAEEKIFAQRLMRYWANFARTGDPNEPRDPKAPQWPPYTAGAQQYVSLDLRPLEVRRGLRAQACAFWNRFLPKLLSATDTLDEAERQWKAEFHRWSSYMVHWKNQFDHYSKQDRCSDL

Cholinesterase = Cholinesterase (Homo sapiens, UniProt P06276)
Cholinesterase, sequence (P06276 whole entry): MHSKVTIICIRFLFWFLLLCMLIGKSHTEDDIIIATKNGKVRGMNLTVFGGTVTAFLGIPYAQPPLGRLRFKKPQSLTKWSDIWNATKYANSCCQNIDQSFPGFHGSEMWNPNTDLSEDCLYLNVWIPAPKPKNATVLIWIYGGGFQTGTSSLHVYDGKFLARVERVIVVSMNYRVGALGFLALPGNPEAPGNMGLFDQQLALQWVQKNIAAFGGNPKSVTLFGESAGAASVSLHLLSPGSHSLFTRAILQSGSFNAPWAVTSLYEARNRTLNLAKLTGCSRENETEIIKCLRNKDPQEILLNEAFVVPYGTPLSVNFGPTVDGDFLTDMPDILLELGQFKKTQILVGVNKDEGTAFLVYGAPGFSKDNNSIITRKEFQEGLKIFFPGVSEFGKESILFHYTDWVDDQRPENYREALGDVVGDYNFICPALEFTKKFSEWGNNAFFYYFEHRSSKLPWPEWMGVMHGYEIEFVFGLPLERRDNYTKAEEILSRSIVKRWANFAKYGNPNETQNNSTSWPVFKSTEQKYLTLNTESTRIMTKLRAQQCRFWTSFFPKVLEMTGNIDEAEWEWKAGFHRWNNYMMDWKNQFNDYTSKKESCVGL

Row | SMILES | Activity [1] | Activity (Liver carboxylesterase 1 [2]) | Activity [3] | Ki [4] [nM] | Ki (Liver carboxylesterase 1 [5]) [nM] | Ki [6] [nM] | Ki (Acetylcholinesterase) [nM] | Ki (Cholinesterase) [nM]
1 | O=C1Nc2ccccc2/C1=N/O | inactive | Not Active | inactive |  |  |  |  | 
2 | c1ccc2c(c1)CCC2 | inactive | Not Active | inactive |  |  |  |  | 
3 | C1=Cc2ccccc2C1 [INDENE] | inactive | Not Active | inactive |  |  |  |  | 
4 | c1ccc2[nH]ccc2c1 [INDOLE] | inactive | Not Active | inactive |  |  |  |  | 
5 | O=C1c2ccccc2C(=O)N1c1ccccc1 [N-PHENYL-PHTHALIMIDE] | inactive | Not Active | inactive |  |  |  |  | 
6 | c1ccc2c(c1)CCN2 [INDOLINE] | inactive | Not Active | inactive |  |  |  |  | 
7 | N/N=C1\C(=O)Nc2ccccc21 | inactive | Not Active | inactive |  |  |  |  | 
8 | O=C1NC(=O)c2ccccc21 [PHTHALIMIDE] | inactive | Not Active | inactive |  |  |  |  | 
9 | O=C1CC(=O)c2ccccc21 | inactive | Not Active | inactive |  |  |  |  | 
10 | O=C1C(=O)N(CCI)c2ccccc21 |  |  |  | 740 | 130 | 2150 | > 100000 | > 100000
